Among the test systems are CAKI-1 renal; HCT-116 colon; KM12 colon; MOLT-4 leukemia; NCI-H226 lung; NCI/ADR-RES ovarian; PC-3 prostate; SF-295 CNS; SNB-75 CNS; UACC-257 melanoma.
Common to all, as to test: NCI tumour cell line growth inhibition, 48 h

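How tested: cells in 96-well plates exposed to compound for 48 hours at five concentrations. The concentration for 50% growth inhibition is given as GI50. TGI: concentration producing complete growth inhibition.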

`COC(=O)/C(Br)=C/c1c[nH]c2ccc(Br)cc12`: the GI50 with CAKI-1 renal was 12.9 µM; in the test with HCT-116 colon, 12.5 µM; with KM12 colon it was 12.6 µM; in the test with MOLT-4 leukemia, 10.6 µM; in the test on NCI-H226 lung, 14.4 µM; with NCI/ADR-RES ovarian it was 12.4 µM. The GI50 in the test with PC-3 prostate was 11.2 µM; in the test on SF-295 CNS it was 12.4 µM; in the test on SNB-75 CNS it was 12.2 µM; in the test on UACC-257 melanoma it was 24.1 µM. Also, the TGI was 29.1 µM in the test on CAKI-1 renal; 27.4 µM with HCT-116 colon; 27 µM with KM12 colon; above 100 µM with MOLT-4 leukemia; 33.2 µM in the test with NCI-H226 lung; 47.8 µM in the test on NCI/ADR-RES ovarian. Also, the TGI in the test on PC-3 prostate stood at 27.8 µM; in the test with SF-295 CNS, 27.3 µM; in the test on SNB-75 CNS, 33 µM; in the test on UACC-257 melanoma, 69.4 µM.

Turning to `Cc1cccc2c(=O)c3c(sc12)c(NCCN)nc1ccccc13`, the GI50 with CAKI-1 renal was 0.851 µM; in the test with HCT-116 colon, 0.759 µM; in the test with KM12 colon it was 0.913 µM; in the test with MOLT-4 leukemia, 0.887 µM; in the test with NCI-H226 lung it was 0.904 µM; with NCI/ADR-RES ovarian, 0.909 µM. Also, the GI50 in the test with PC-3 prostate is 0.717 µM; in the test on SF-295 CNS, 0.886 µM; with SNB-75 CNS it was 0.448 µM; in the test with UACC-257 melanoma, 0.966 µM. The TGI in the test on CAKI-1 renal was determined as 2.85 µM; with HCT-116 colon, 1.43 µM; in the test on KM12 colon, 1.77 µM; with MOLT-4 leukemia, 1.8 µM; with NCI-H226 lung, 2.33 µM; with NCI/ADR-RES ovarian it was 1.95 µM. In addition, the TGI is 1.49 µM in the test with PC-3 prostate, 1.7 µM in the test on SF-295 CNS, 2.79 µM in the test on SNB-75 CNS and 1.99 µM in the test with UACC-257 melanoma.

For the compound `O=S(=O)(c1ccccc1)C1CN(Cc2ccccc2)CCN(Cc2ccccc2)C1`, the TGI in the test with CAKI-1 renal was 98.9 µM; in the test on HCT-116 colon, above 100 µM; with KM12 colon, above 100 µM; with MOLT-4 leukemia, above 100 µM; with NCI-H226 lung, above 100 µM; with NCI/ADR-RES ovarian, 78.1 µM. Also, the TGI with PC-3 prostate was 45.3 µM; with SF-295 CNS, above 100 µM; in the test with SNB-75 CNS it was above 100 µM; in the test with UACC-257 melanoma, above 100 µM.

In the case of `N=C1N=Nc2nc(C3(c4nc5n(c4O)C(=N)N=N5)Cc4ccccc4C3=O)c(O)n21` (stereo not given), the TGI in the test with CAKI-1 renal, with HCT-116 colon, with KM12 colon, in the test with MOLT-4 leukemia, in the test on NCI-H226 lung and in the test with NCI/ADR-RES ovarian was above 100 µM throughout. Besides, the TGI in the test on PC-3 prostate, in the test with SF-295 CNS, with SNB-75 CNS and in the test with UACC-257 melanoma was above 100 µM throughout.

For `COc1ccc2c(c1)c(=O)oc1cc(OC/C(=N\O)c3ccc(F)cc3)ccc12`, the GI50 was 19.9 µM with CAKI-1 renal; 14.2 µM with HCT-116 colon; 19.7 µM with KM12 colon; 18.1 µM with MOLT-4 leukemia; 37 µM with NCI-H226 lung; 18.2 µM with NCI/ADR-RES ovarian. Also, the GI50 is 24.1 µM with PC-3 prostate, 20.2 µM with SF-295 CNS, 18.5 µM with SNB-75 CNS and 25.4 µM with UACC-257 melanoma. Also, the TGI with CAKI-1 renal was 47.8 µM; in the test on HCT-116 colon, 28 µM; with KM12 colon it was 43.8 µM; with MOLT-4 leukemia it was above 100 µM; in the test on NCI-H226 lung it was above 100 µM; with NCI/ADR-RES ovarian, 49.7 µM. For the same compound, the TGI with PC-3 prostate amounted to 79 µM; in the test on SF-295 CNS it was 49.1 µM; in the test on SNB-75 CNS, 47.9 µM; in the test with UACC-257 melanoma, 91.1 µM.

As for `O=C(Nc1cc(Cl)cc(Cl)c1)c1ccc(NC2=C(Cl)C(=O)N(Cc3ccccc3)C2=O)cc1`, the GI50 is 0.799 µM in the test on CAKI-1 renal; 0.743 µM in the test on HCT-116 colon; 6.43 µM in the test on KM12 colon; 1.51 µM in the test on MOLT-4 leukemia; 11.5 µM in the test on NCI-H226 lung; 11.3 µM with NCI/ADR-RES ovarian. The GI50 with PC-3 prostate was 3.29 µM; with SF-295 CNS, 2.49 µM; with SNB-75 CNS, 35.4 µM; with UACC-257 melanoma, 11.5 µM. The TGI in the test on CAKI-1 renal worked out at 2.98 µM; with HCT-116 colon it was 3.76 µM; in the test on KM12 colon, 26.2 µM; in the test with MOLT-4 leukemia, 4.91 µM; in the test with NCI-H226 lung, 25.1 µM; in the test with NCI/ADR-RES ovarian, 26.7 µM. The TGI with PC-3 prostate is 12.7 µM; in the test with SF-295 CNS, 13.6 µM; in the test with SNB-75 CNS, 74.5 µM; in the test with UACC-257 melanoma, 27.1 µM.

Turning to `O=C1C=CC(=O)N1CCCCCCCCCCN1C(=O)C=CC1=O`, the GI50 was 9.19 µM in the test with CAKI-1 renal; 3.6 µM with HCT-116 colon; 15.4 µM in the test on KM12 colon; 8.62 µM in the test on MOLT-4 leukemia; 17.1 µM in the test with NCI-H226 lung; 21.2 µM with NCI/ADR-RES ovarian. The GI50 was 18.1 µM in the test with PC-3 prostate, 23.5 µM in the test with SF-295 CNS, 11.5 µM with SNB-75 CNS and 11.5 µM in the test on UACC-257 melanoma. Besides, the TGI in the test on CAKI-1 renal worked out at 25.2 µM; in the test with HCT-116 colon, 12.9 µM; in the test with KM12 colon, 30.3 µM; in the test with MOLT-4 leukemia, 48.6 µM; in the test with NCI-H226 lung it was 34.4 µM; with NCI/ADR-RES ovarian, 55.9 µM. The TGI stood at 36.5 µM with PC-3 prostate, 74.4 µM in the test on SF-295 CNS, 24.4 µM in the test on SNB-75 CNS and 24.8 µM in the test with UACC-257 melanoma.

For the compound `Cn1cc(-c2nc(-c3cn(C)c4ncccc34)cs2)c2cc(F)ccc21`, the GI50 is 0.776 µM with CAKI-1 renal; 0.775 µM in the test on HCT-116 colon; 0.61 µM with KM12 colon; 3.17 µM with MOLT-4 leukemia; 2.6 µM in the test on NCI-H226 lung; 0.511 µM with NCI/ADR-RES ovarian. Also, the GI50 was 2.13 µM with PC-3 prostate, 0.709 µM in the test with SF-295 CNS, 1.27 µM in the test on SNB-75 CNS and 6.33 µM in the test with UACC-257 melanoma. The TGI with CAKI-1 renal is 11.9 µM; with HCT-116 colon, 41.2 µM; in the test with KM12 colon, 14.6 µM; in the test with MOLT-4 leukemia, above 100 µM; in the test on NCI-H226 lung, above 100 µM; with NCI/ADR-RES ovarian, 8.61 µM. Further, the TGI was 32 µM in the test with PC-3 prostate, 6.18 µM in the test with SF-295 CNS, 4.27 µM with SNB-75 CNS and above 100 µM in the test with UACC-257 melanoma.

The values above are taken from PubChem BioAssay (NCI).
